The values that follow come from patent US11077205B2, “Synthetic compound for improving efficiency of transfection” (Klinikum der Universität München, priority 2016, dated 2021).

The test system of the assay is 16HBE cells. Nature of the assay: Cell endocytosis mechanism assay, uptake of Fluo-pDNA containing P704 based ternary complexes (flow cytometry). On the set-up: species or system human. Particulars: for endocytosis of ternary complexes in presence of free compound and its fragments (competition): FIG. 11c/11d. On the procedure: In order to study the cellular uptake different binary and ternary complexes, 16 HBE cells (7×10^5/well) were seeded in 6-well plate 24 h before investigation. P704 based binary complexes were prepared by mixing P704 at the concentration of 63 (w/w) with Fluo-pDNA in Tyrode's solution. Compound 9 based binary complexes were prepared by mixing compound 9 at the N/P ratio of 5 with Fluo-pDNA in NF-water. P704 based ternary complexes consisted of P704 at the concentration of 63 (w/w), compound 0 (DL) or compound 9 at optimum N/P ratio and Fluo-pDNA. P304 based ternary complexes consisted of P304 at the concentration of 2000 (w/w), compound 8 at N/P ratio of 20 and Fluo-pDNA. P90R4 based ternary complexes consisted of P90R4 at the concentration of 1600 (w/w), compound 8 at N/P ratio of 15 and Fluo-pDNA. The amount of Fluo-pDNA in each sample was 4 μg/well. Naked Fluo-pDNA was served as a negative control. After 4 h incubation, medium was removed. The cells were harvested and rinsed with cold PBS for three times followed immediately by flow cytometry analysis. The amount of 10 000 live cells was collected for each sample.
With the purpose of identifying possible internalization mechanisms of ternary complexes by human bronchial epithelium cells, 16 HBE cells were pre-incubated at different temperatures or treated with specific agents at 37° C. for 1 h, then incubated with P704 based ternary complexes in the same conditions as described above. (I, II) To examine the effects of chlorpromazine and filipin, which were the clathrin- and caveolae-dependent endocytosis inhibitors, 10 μg/ml chlorpromazine or 1 μg/ml filipin in OptiMEM were used. (III) To study the effect of amiloride (macropinocytosis inhibitor), 0.3 mg/ml amiloride was adopted. (IV) To investigate the effect of protamine, an adsorptive-mediated endocytosis inhibitor, 1 mM protamine sulfate was added. […]
(In general: Flow cytometry measures light scatter and fluorescence of single cells or particles in a stream.)

The star is where a group is joined. ξ: configuration not given here. Lipoyl(6ξ) = O=C(CCCCC1CCSS1)*

Regarding “KETWWETWWTEWWTEW-KKKKRRRRRKKKK-GACSERSMNFCG (KETWWETWWTEWWTEWKKKKRRRRRKKKKGACSERSMNFCG) [compound 9]”, the “endocytosis of ternary complexes in presence of free compound and its fragments (competition)” value is “inhibited by free compound 9 and free peptide GACSERSMNFCG”. Besides, where the note is “FIG. 11a”, the “cell uptake of ternary complexes at 4° C. and in the presence of NaN3” value is reported as “Energy-dependent cell uptake”.

For the substance “NH2-VKRKKKPKKRRRRKKWK(DL-lipoic acid)-CONH2 (H-VKRKKKPKKRRRRKKWK(Lipoyl(6ξ))-NH2; SMILES CC(C)[C@H](N)C(=O)N[C@@H](CCCCN)C(=O)N[C@@H](CCCNC(=N)N)C(=O)N[C@@H](CCCCN)C(=O)N[C@@H](CCCCN)C(=O)N[C@@H](CCCCN)C(=O)N1CCC[C@H]1C(=O)N[C@@H](CCCCN)C(=O)N[C@@H](CCCCN)C(=O)N[C@@H](CCCNC(=N)N)C(=O)N[C@@H](CCCNC(=N)N)C(=O)N[C@@H](CCCNC(=N)N)C(=O)N[C@@H](CCCNC(=N)N)C(=O)N[C@@H](CCCCN)C(=O)N[C@@H](CCCCN)C(=O)N[C@@H](Cc1c[nH]c2ccccc12)C(=O)N[C@@H](CCCCNC(=O)CCCCC1CCSS1)C(N)=O) [compound 0 (DL)]”, the “endocytosis of ternary complexes in presence of free compound and its fragments (competition)” value is “cannot be inhibited by free compound 0 (DL) and its fragment sequence”.
